# Experimental data published in US20260176289A1, “SMALL MOLECULE INHIBITORS OF KRAS PROTEINS” (Merck Sharp & Dohme LLC, priority 2022, published 2026).
# Legend:
# KRAS-G12V = KRAS-G12V (Homo sapiens, UniProt P01116, G12V); assay: SOS-catalyzed nucleotide exchange assay (Procedure A, TR-FRET), KRAS-G12V; assay type: biochemical; details: nucleotide exchange, read-out: KRAS G12V GNE IC50
# Outline: (§1)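 TR-FRET readout (520/495 nm) of SOS-driven exchange of Bodipy-GDP for unlabeled GTP (3 mM) on biotinylated, Tb-streptavidin-bound RAS, after 60 min compound preincubation at room temperature. Exchange times and RAS/SOS levels: 60 min for WT (1/40 nM), G12C triple mutant (3/40 nM), NRAS (1.25/40 nM); 90 min for G12V (1.25/160 nM). Four-parameter logistic fits on normalized effect.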
# KRAS-WT = KRAS-WT (Homo sapiens, UniProt P01116); assay: SOS-catalyzed nucleotide exchange assay (Procedure A, TR-FRET), KRAS-WT; assay type: biochemical; details: nucleotide exchange, read-out: KRAS WT GNE IC50
# Sequence of KRAS-WT (P01116 with tags, fused parts or gaps isoform P01116-2): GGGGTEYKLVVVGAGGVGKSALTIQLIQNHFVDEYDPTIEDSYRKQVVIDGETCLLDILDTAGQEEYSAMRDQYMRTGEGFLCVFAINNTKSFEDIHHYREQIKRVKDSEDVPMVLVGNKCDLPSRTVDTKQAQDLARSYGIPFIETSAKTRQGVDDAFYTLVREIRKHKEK
# Outline: as §1
# PANC08.13 cells = assay: Cellular phospho-ERK assay, PANC08.13 cells (homozygous KRAS-G12D); assay type: cell-based; details: Homo sapiens, PANC-08-13, KRAS-G12D, 2 hours, read-out: PANC-08.13 pERK IC50
# Outline: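 Cells seeded at 10,000-15,000 per well were incubated overnight, then exposed to compound for 2 hours at 37 °C in a 10-point, 1:3 series topping at 30 μM final. Lysates were assayed by Alpha SureFire Ultra multiplex for p-ERK and total ERK; IC50 came from a 4-parameter logistic fit of their ratio.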
# Sequence of KRAS-G12V (P01116 with tags, fused parts or gaps isoform P01116-2 G12V): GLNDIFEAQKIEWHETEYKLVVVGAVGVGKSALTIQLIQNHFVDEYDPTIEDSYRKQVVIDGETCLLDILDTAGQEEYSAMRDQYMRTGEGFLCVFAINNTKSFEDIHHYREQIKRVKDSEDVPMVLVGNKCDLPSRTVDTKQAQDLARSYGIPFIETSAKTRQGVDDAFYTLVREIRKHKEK
smiles,measurement,setting,value
"C#Cc1c(F)ccc2cc(O)cc(-c3nccc4c5c(N6CCOC[C@@](C)(O)C6)nc(OC[C@@]67CCCN6C[C@H](F)C7)nc5n(C)c34)c12 [Ex-18, (S)-4-(8-(8-ethynyl-7-fluoro-3-hydroxynaphthalen-1-yl)-2-(((2R,7aS)-2-fluorotetrahydro-1H-pyrrolizin-7a(5H)-yl)methoxy)-9-methyl-9H-pyrido[4′,3′:4,5]pyrrolo[2,3-d]pyrimidin-4-yl)-6-methyl-1,4-oxazepan-6-ol]",IC50,KRAS-G12V,3.85 nM
same,IC50,KRAS-WT,1.46 nM
same,IC50,PANC08.13 cells,4.54 nM
